Molecular target: GST-tagged truncated human mutant G2019S LRRK2 (Homo sapiens (Human), UniProt Q5S007, G2019S)
Experiment: LRRK2 G2019S Km ATP LanthaScreen assay
Format: biochemical
Conditions: G2019S LRRK2, 134 μM ATP (Km ATP), LRRKtide substrate; for IC50: read-out: LRRK2 pIC50 (converted)
Method in brief: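 Ten-point compound series (highest 9.99 μM in DMSO) preincubated 15 min with 1.25 nM GST-tagged truncated human LRRK2 G2019S, then 90 min reaction at ambient temperature with 134 μM ATP (Km) and fluorescein-labelled LRRKtide, pH 8.5. Phosphorylation read as 520/495 nm emission ratio via Tb-labelled antibody; IC50 from 4P logistic regression.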

Chain of GST-tagged truncated human mutant G2019S LRRK2 (Q5S007 970-2527 G2019S): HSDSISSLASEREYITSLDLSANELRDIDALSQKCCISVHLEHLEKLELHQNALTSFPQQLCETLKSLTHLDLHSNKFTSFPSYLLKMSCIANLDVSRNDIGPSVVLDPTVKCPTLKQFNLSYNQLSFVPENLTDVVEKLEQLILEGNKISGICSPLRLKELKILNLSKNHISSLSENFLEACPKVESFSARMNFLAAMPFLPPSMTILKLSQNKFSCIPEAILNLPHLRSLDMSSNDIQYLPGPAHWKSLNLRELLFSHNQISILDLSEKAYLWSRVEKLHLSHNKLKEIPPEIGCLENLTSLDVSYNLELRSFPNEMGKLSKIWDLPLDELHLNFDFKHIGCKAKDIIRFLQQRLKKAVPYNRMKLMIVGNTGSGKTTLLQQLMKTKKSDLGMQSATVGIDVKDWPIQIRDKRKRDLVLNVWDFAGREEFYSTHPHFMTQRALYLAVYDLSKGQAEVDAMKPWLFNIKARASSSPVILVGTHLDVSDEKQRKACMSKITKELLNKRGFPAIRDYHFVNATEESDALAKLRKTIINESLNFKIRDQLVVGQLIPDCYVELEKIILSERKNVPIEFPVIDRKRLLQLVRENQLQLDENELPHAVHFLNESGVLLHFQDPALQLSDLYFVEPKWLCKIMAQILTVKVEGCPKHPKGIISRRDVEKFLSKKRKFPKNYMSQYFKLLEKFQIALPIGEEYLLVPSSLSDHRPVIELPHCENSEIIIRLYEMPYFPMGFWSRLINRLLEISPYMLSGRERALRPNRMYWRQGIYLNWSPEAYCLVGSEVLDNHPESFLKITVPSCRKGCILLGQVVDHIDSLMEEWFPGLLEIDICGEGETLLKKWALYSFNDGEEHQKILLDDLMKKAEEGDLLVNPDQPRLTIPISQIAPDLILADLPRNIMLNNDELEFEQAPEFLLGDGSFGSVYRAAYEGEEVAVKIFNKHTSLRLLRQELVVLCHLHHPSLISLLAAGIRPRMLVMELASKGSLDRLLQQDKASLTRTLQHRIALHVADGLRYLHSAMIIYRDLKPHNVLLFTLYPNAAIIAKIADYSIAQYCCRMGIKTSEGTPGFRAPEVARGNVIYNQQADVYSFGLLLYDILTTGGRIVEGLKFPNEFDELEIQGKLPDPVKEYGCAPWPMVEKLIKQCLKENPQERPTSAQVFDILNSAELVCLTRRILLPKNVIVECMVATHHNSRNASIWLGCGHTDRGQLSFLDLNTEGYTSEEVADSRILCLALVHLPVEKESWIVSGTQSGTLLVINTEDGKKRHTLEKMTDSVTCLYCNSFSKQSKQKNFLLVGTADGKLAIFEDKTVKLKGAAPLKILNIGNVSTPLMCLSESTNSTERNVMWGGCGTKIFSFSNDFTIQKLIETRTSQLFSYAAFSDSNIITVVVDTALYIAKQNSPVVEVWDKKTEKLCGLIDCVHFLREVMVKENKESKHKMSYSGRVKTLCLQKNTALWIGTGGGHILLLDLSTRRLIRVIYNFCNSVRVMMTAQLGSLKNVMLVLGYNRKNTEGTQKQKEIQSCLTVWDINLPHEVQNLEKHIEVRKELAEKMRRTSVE

| SMILES | LRRK2 pIC50 | IC50 [nM] |
| --- | --- | --- |
| Cc1nn(C2CCC2)c2c1OC[C@H]1CN(C[C@@H]1C)c1nc(ncc1C(F)(F)F)N2 (single isomer, unassigned) [Ex-20.1, (6S,7S)- or (6R,7R)-1-Cyclobutyl-3,7-dimethyl-11-(trifluoromethyl)-1,5,6,7,8,15-hexahydro-10,14-(azeno)-6,9-methanopyrazolo[4,3-b][1]oxa[4,6,10]triazacyclotetradecine] | 5.84 | – |
| O[C@@H]1COCC1n1nc(C2CC2)c2c1OC[C@H]1CC[C@@H]1Nc1nc(ncc1C(F)(F)F)N2 (single isomer, unassigned) [Ex-6.1, (3R,4S)-4-((10aR,12aR)- or (3R,4S)-4-((10aS,12aS)- or (3S,4R)-4-((10aR,12aR)- or (3S,4R)-4-((10aR,12aR)-3-cyclopropyl-8-(trifluoromethyl)-10,10a,11,12,12a,13-hexahydro-5,9-(azeno)cyclobuta[k]pyrazolo[3,4-b][1]oxa[4,6,10]triazacyclotridecin-1 (4H)-yl)tetrahydrofuran-3-ol] | 7.94 | – |
| Cc1nn(C2CC2)c2c1O[C@@H]1CC[C@@H]1CNc1nc(ncc1C(F)(F)F)N2 [Ex-2.86, (11aR,13aR)- or (11aS,13aS)-3-cyclopropyl-1-methyl-8-(trifluoromethyl)-3,4,10,11,11a,12,13,13a-octahydro-5,9-(azeno)cyclobuta[l]pyrazolo[4,3-b][1]oxa[4,6,10]triazacyclotridecine] | 8.13 | – |
| Cc1nn(C2CCC2)c2c1OCC[C@H]1COCCN1c1nc(ncc1C(F)(F)F)N2 (single isomer, unassigned) [Ex-21.4, (R) or (S)-3-cyclobutyl-1-methyl-8-(trifluoromethyl)-3,4,11,12,14,14a,15,16-octahydro-5,9-(azeno)[1,4]oxazino[4,3-j]pyrazolo[4,3-b][1]oxa[4,6,10]triazacyclotridecine] | – | 2450 |
| Cn1cc(C2CC2c2nn(C3CCC3)c3c2OC[C@@H]2COC[C@H]2Nc2nc(ncc2C(F)(F)F)N3)cn1 (stereo partly drawn) [Ex-2.70, (10aS,13aS)-3-cyclobutyl-1-((1S,2S)- or (10aS,13aS)-3-cyclobutyl-1-((IR,2R)-2-(1-methyl-1H-pyrazol-4-yl)cyclopropyl)-8-(trifluoromethyl)-3,4,10a,11,13a,14-hexahydro-10H,13H-5,9-(azeno)furo[3,4-k]pyrazolo[4,3-b][1]oxa[4,6,10]triazacyclotridecine] | 9.35 | – |
| CC1CCOc2c(C3CC3)nn(C)c2Nc2ncc(C(F)(F)F)c(n2)N1 (single isomer, unassigned) [Ex-2.19, (R)- or (S)-3-cyclopropyl-1,7-dimethyl-10-(trifluoromethyl)-1,5,6,7,8,14-hexahydro-9,13-(azeno)pyrazolo[4,3-b][1]oxa[4,6,10]triazacyclotridecine] | 8.78 | – |
| Cc1nn(C)c2c1OC[C@H]1CCC(C1)Nc1nc(ncc1C(F)(F)F)N2 [Ex-2.88, (5^1R,5^3S)-1^1,1^3-dimethyl-3^5-(trifluoromethyl)-1^1H-7-oxa-2,4-diaza-3(2,4)-pyrimidina-1(5,4)-pyrazola-5(1,3)-cyclopentanacycloheptaphane] | 7.64 | – |
| Cc1nn(C2CCC2)c2c1OC[C@@H]1CC(F)(F)C[C@H]1Nc1nc(ncc1C(F)(F)F)N2 [Ex-4.2, 3-Cyclobutyl-12,12-difluoro-1-methyl-8-(trifluoromethyl)-3,4,10a,11,12,13,13a,14-octahydro-10H-5,9-(azeno)cyclopenta[k]pyrazolo[4,3-b][1]oxa[4,6,10]triazacyclotridecine] | 9.51 | – |
| Cc1nn(C)c2c1OCC[C@H](C)Nc1nc(ncc1C(F)(F)F)N2 (mixture of isomers) [Ex-2.1, (R)- and (S)-1,3,7-trimethyl-10-(trifluoromethyl)-1,5,6,7,8,14-hexahydro-9,13-(azeno)pyrazolo[4,3-b][1]oxa[4,6,10]triazacyclotridecine] | 6.64 | – |
| Cc1nn(C(C)C)c2c1OC[C@@H]1CC[C@H]1Nc1nc(ncc1Cl)N2 [Ex-2.61, (10aR,12aR)-8-chloro-3-isopropyl-1-methyl-3,4,10,10a,11,12,12a,13-octahydro-5,9-(azeno)cyclobuta[k]pyrazolo[4,3-b][1]oxa[4,6,10]triazacyclotridecine] | 9.60 | – |
| O[C@H]1CC[C@@H]1n1nc(C2CC2)c2c1OC[C@@H]1COC[C@H]1Nc1nc(ncc1C(F)(F)F)N2 (single isomer, unassigned) [Ex-6.8, (1R,2R)- or (1S,2S)-2-((10aS,13aS)-3-cyclopropyl-8-(trifluoromethyl)-10a,11,13a,14-tetrahydro-10H,13H-5,9-(azeno)furo[3,4-k]pyrazolo[3,4-b][1]oxa[4,6,10]triazacyclotridecin-1(4H)-yl)cyclobutan-1-ol] | >10.09 | – |
| FC(F)(F)c1cnc2nc1N[C@@H]1COC[C@H]1COc1ncccc1N2 [Ex-15.6, (11aS,14aS)-9-(trifluoromethyl)-11a,12,14a,15-tetrahydro-5H,11H,14H6,10-(azeno)furo[3,4-k]pyrido[2,3-b][1]oxa[4,6,10]triazacyclotridecine] | 9.08 | – |
| Cc1nn(C)c2c1Nc1ncc(C(F)(F)F)c(n1)NCC1(CC1)CO2 [Ex-1.23, 1′,3′-dimethyl-8′-(trifluoromethyl)-1′,4′,10′,11′-tetrahydro-13′H-spiro[cyclopropane-1,12′-[5,9](azeno)pyrazolo[3,4-b][1]oxa[4,6,10]triazacyclotridecine]] | 9.47 | – |
| COC1CC(n2nc(C)c3c2Nc2ncc(C(F)(F)F)c(n2)NC2COCC2CO3)C1 (single isomer, unassigned) [Ex-2.31, (10aS,13aS)- or (10aR,13aR)-3-((1R,3S)-3-methoxycyclobutyl)-1-methyl-8-(trifluoromethyl)-3,4,10a,11,13a,14-hexahydro-10H,13H-5,9-(azeno)furo[3,4-k]pyrazolo[4,3-b][1]oxa[4,6,10]triazacyclotridecine] | – | 288 |
| Cc1nn(C2CCC2)c2c1OC[C@@H]1CC[C@H]1Nc1cc(ncc1Cl)N2 [Ex-13.3, (10aR,12aR)-8-chloro-3-cyclobutyl-1-methyl-3,4,10,10a,11,12,12a,13-octahydro-5,9-(metheno)cyclobuta[k]pyrazolo[4,3-b][1]oxa[4,6,10]triazacyclotridecine] | >10.09 | – |
| Cc1nn(C2CCC2)c2c1OC[C@@H]1COC[C@H]1Nc1nc(ncc1C(F)(F)F)N2 [Ex-5.1, (10aS,13aS)-3-cyclobutyl-1-methyl-8-(trifluoromethyl)-3,4,10a,11,13a,14-hexahydro-10H,13H-5,9-(azeno)furo[3,4-k]pyrazolo[4,3-b][1]oxa[4,6,10]triazacyclotridecine] | >10.09 | – |
| Cc1nn(C(C)C)c2c1OC[C@@H]1CC[C@H]1Nc1cc(ncc1Cl)N2 [Ex-13.4, (10aR,12aR)-8-chloro-3-isopropyl-1-methyl-3,4,10,10a,11,12,12a,13-octahydro-5,9-(metheno)cyclobuta[k]pyrazolo[4,3-b][1]oxa[4,6,10]triazacyclotridecine] | 9.61 | – |
| COC1CCC1n1nc(C)c2c1Nc1ncc(C(F)(F)F)c(n1)NC1COCC1CO2 [Ex-2.40, (10aS,13aS)-3-((1R,2R)-(10aS,13aS)-3-((1S,2R)-(10aS,13aS)-3-((1R,2S)-(10aS,13aS)-3-((1R,2R)-(10aR,13aR)-3-((1S,2R)-(10aR,13aR)-3-((1R,2S)-2-methoxycyclobutyl)-1-methyl-8-(trifluoromethyl)-3,4,10a,11,13a,14-hexahydro-10H,13H-5,9-(azeno)furo[3,4-k]pyrazolo[4,3-b][1]oxa[4,6,10]triazacyclotridecine] | 8.96 | – |
| COC1CCC1n1nc(C)c2c1Nc1ncc(C(F)(F)F)c(n1)NC1COCC1CO2 [Ex-2.36, (10aS,13aS)-3-((1R,2R)-(10aS,13aS)-3-((1S,2R)-(10aS,13aS)-3-((1R,2S)-(10aS,13aS)-3-((1R,2R)-(10aR,13aR)-3-((1S,2R)-(10aR,13aR)-3-((1R,2S)-2-methoxycyclobutyl)-1-methyl-8-(trifluoromethyl)-3,4,10a,11,13a,14-hexahydro-10H,13H-5,9-(azeno)furo[3,4-k]pyrazolo[4,3-b][1]oxa[4,6,10]triazacyclotridecine] | 6.31 | – |
| Cc1nn(C(C)C)c2c1OC[C@@H]1COC[C@H]1Nc1cc(ncc1C(F)(F)F)N2 [Ex-13.5, (10aS,13aS)-3-isopropyl-1-methyl-8-(trifluoromethyl)-3,4,10a,11,13a,14-hexahydro-10H,13H-5,9-(metheno)furo[3,4-k]pyrazolo[4,3-b][1]oxa[4,6,10]triazacyclotridecine] | >10.09 | – |
| FC(F)(F)c1cnc2nc1NC1CCC1COc1c(C3CCOC3)nn(C3CCC3)c1N2 [Ex-2.65, (10aR,12aR)-3-cyclobutyl-1-((R)-(10aR,12aR)-3-cyclobutyl-1-((S)-(10aS,12aS)-3-cyclobutyl-1-((R)-(10aS,12aS)-3-cyclobutyl-1-((S)-tetrahydrofuran-3-yl)-8-(trifluoromethyl)-3,4,10,10a,11,12,12a,13-octahydro-5,9-(azeno)cyclobuta[k]pyrazolo[4,3-b][1]oxa[4,6,10]triazacyclotridecine] | 6.59 | – |
| CC(C)n1nc(C2C[C@@H]2C#N)c2c1Nc1ncc(C(F)(F)F)c(n1)N[C@@H]1COC[C@H]1CO2 (single isomer, unassigned) [Ex-2.45, (1S,2S)- or (1R,2R)-2-((10aS,13aS)-3-isopropyl-8-(trifluoromethyl)-3,4,10a,11,13a,14-hexahydro-10H,13H-5,9-(azeno)furo[3,4-k]pyrazolo[4,3-b][1]oxa[4,6,10]triazacyclotridecin-1-yl)cyclopropane-1-carbonitrile] | 8.32 | – |
| Cc1nn(C2CCC2)c2c1OC1COC[C@@H]1CNc1nc(ncc1Cl)N2 (stereo partly drawn) [Ex-2.84, (11aR,14aR)- or (11aS,14aS) 8-chloro-3-cyclobutyl-1-methyl-3,4,10,11,11a,12,14,14a-octahydro-5,9-(azeno)furo[3,4-1]pyrazolo[4,3-b][1]oxa[4,6,10]triazacyclotridecine] | 8.77 | – |
